These molecules were tested against Methyl-coenzyme M reductase (MCR-I), Ni(I)-MCRred1 (Methanothermobacter marburgensis, UniProt P11558+P11560+P11562) (assay: biochemical).
Format: binding

Sequence of Methyl-coenzyme M reductase (MCR-I), Ni(I)-MCRred1 (P11558 2-550 limits assumed): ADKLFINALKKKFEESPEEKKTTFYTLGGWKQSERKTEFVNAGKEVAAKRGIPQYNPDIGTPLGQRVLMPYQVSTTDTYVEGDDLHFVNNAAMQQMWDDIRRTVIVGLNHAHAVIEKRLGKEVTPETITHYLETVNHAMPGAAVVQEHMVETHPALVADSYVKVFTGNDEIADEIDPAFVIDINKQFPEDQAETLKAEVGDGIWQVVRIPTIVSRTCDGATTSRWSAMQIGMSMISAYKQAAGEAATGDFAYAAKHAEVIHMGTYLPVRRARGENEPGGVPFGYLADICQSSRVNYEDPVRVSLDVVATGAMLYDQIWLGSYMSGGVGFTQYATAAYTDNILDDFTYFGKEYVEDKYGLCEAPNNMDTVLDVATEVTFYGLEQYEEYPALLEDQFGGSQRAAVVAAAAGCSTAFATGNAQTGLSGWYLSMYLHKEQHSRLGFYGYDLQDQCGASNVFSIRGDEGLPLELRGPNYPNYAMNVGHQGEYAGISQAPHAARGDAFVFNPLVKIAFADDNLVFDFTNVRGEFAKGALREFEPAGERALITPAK
Sequence of Methyl-coenzyme M reductase (MCR-I), Ni(I)-MCRred1 (P11560 2-443 limits assumed): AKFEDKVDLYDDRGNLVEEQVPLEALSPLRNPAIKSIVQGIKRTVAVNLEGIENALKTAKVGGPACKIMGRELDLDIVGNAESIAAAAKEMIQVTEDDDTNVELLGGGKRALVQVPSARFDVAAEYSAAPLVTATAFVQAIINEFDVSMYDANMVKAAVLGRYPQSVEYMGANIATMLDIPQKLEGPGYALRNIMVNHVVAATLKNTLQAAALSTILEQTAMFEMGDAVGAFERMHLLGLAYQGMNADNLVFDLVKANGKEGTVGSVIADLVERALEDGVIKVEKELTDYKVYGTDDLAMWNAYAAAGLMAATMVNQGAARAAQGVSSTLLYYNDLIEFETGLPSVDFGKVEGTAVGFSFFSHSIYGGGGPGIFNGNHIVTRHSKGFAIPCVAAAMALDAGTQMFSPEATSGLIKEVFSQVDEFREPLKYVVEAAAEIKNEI
Sequence of Methyl-coenzyme M reductase (MCR-I), Ni(I)-MCRred1 (P11562 2-249 limits assumed): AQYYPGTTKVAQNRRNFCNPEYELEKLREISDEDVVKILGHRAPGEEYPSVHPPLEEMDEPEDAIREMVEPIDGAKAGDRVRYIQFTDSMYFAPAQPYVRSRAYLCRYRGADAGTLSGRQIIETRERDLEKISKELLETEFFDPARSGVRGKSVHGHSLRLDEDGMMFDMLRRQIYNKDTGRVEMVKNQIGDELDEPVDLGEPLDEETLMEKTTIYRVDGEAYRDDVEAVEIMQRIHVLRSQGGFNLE

Row | SMILES | Kd
1 | CCCCS(=O)(=O)O [But-SO3] | 3300 ± 600 µM
2 | C[C@@H](OP(=O)(O)O)[C@H](NC(=O)CCCCCSSCCS(=O)(=O)O)C(=O)O [CoMSSCoB6] | 105 ± 10.9 µM
3 | C[C@@H](OP(=O)(O)O)[C@H](NC(=O)CCCCCCSSCCS(=O)(=O)O)C(=O)O [CoMSSCoB] | 57.4 ± 5.4 µM
4 | CSCCS(=O)(=O)O [methyl-SCoM, S-methyl-2-mercaptoethane sulfonate] | 27.5 ± 7.3 µM

Source: doi:10.1101/2021.01.25.428124v1 (biorxiv, 2021)
